Results published in article PMC8308784, “Novel Purine Chemotypes with Activity against Plasmodium falciparum and Trypanosoma cruzi” (Pharmaceuticals, 2021).
Like-named read-outs stand apart in the source and are kept apart here.

How the values were obtained:
[1] = tested on: P. falciparum 3D7; test: P. falciparum primary screening at three fixed concentrations; format: cell-based; settings: average of at least three experiments; for activity at 1 µM / activity at 10 µM / activity at 100 µM: Plasmodium falciparum, read-out: Primary screening, parasite growth relative to the negative control; for activity at 1 µM: 3D7, compound at 1 µM; for activity at 10 µM: 3D7, compound at 10 µM; for activity at 100 µM: 3D7, compound at 100 µM
[2] = tested on: T. cruzi Tulahuen strain expressing β-galactosidase; test: anti-T. cruzi dose-response growth inhibition assay (Vero cells plus trypomastigotes, CPRG readout); format: cell-based; settings: Vero cells plus trypomastigotes, MOI 1, four days, mean (SD), read-out: T. cruzi IC50 a (anti-T. cruzi assay)
[3] = tested on: Vero cells; test: Vero cell toxicity assay (alamarBlue); format: cell-based, green monkey; settings: 4 days; minimum value of the 95% CI, except BNZ (mean (SD))
Protocol: Human erythrocytes were purified from B+ Rh+ blood samples and maintained at 4 °C in incomplete RPMI medium. Vero (green monkey kidney epithelial cells), LLC-MK2 (Rhesus monkey kidney epithelial cells), and HepG2 (human liver epithelial cells) cultures were cultivated in DMEM supplemented with 1% penicillin–streptomycin (PS) and 10% heat-inactivated fetal bovine serum (FBS) at 37 °C, 5% CO2, and >95% humidity, as described in [31]. HepG2 cells were also supplemented with 10% non-essential amino acids. Vero and MK2 cells were passaged twice per week at 1:12 ratios, while HepG2 cells were passaged at a 1:8 ratio.
Vero and HepG2 cells were detached, centrifuged, and resuspended in DMEM without phenol red. Cell viability was checked upon cell counting with trypan blue staining. Then, Vero and HepG2 cells were diluted at a concentration of 5 × 10^5 and 3.2 × 10^5 cells per mL, respectively, before adding 100 µL per well to the 96-well plate. Each run contained its own negative (untreated cells) and positive (medium alone) controls. Plates were incubated at 37 °C for 4 days in the case of Vero, or 2 in the case of HepG2 cells. Assay readout was made by adding 50 µL per well of a PBS solution containing 10% alamarBlue reagent (Thermo Fisher Scientific); then, plates were incubated for another 6 h at 37 °C, before recording the fluorescence intensity with a Tecan Infinite M Nano+ reader (excitation: 530 nm, emission: 590 nm).
(§1) Absorbance values derived from the anti-T. cruzi assays and fluorescence values from the anti-P. falciparum and cell toxicity assays were normalized to the controls. In the primary screening at three fixed doses, the compounds’ inhibitory activity was expressed as a percentage of the negative control (100% parasitic growth). In dose–response assays, the compounds’ IC50 and TC50 values were determined with GraphPad Prism 7 software (version 7.00, 2016), using a non-linear regression analysis model defined by the following equation: Y=100 ÷(1+10^((LogIC50−X)×HillSlope))

[4] = tested on: T. cruzi intracellular amastigotes; test: Antiamastigote growth inhibition assay; format: cell-based; settings: intracellular amastigotes in Vero cells, mean (SD), read-out: T. cruzi IC50 b (antiamastigote assay)
Protocol: Vero cells were seeded in T-175 flasks (5 × 10^6 cells per flask) in DMEM supplemented with 1% penicillin–streptomycin and 10% FBS, and cultured for 24 h. Then, cells were washed once with PBS, and free-swimming trypomastigotes (1 × 10^7 trypomastigotes per flask; MOI = 1) in assay medium were added and allowed 18 h to infect. After that, infected cell monolayers were washed with PBS and detached. Cells were counted and diluted to a concentration of 5 × 10^5 cells per mL, before adding 100 µL per well to test plates already containing the drugs dispensed as described above. In all cases, we included BNZ as control drug, and each plate contained its own negative (Vero cells and parasites) and positive (Vero cells) controls.
as §1

[5] = Trypanosoma cruzi, TULAHUEN, 96 h

| Structure (SMILES) | activity at 1 µM [1] [%] | activity at 10 µM [1] [%] | activity at 100 µM [1] [%] | IC50 [2, 5] [µM] | Vero Cells TC50 [3] [µM] | IC50 ([4]; Trypanosoma cruzi) [µM] | Primary screening, parasite growth relative to the negative control ([1]; compound at 1 µM) [%] | Primary screening, parasite growth relative to the negative control ([1]; compound at 10 µM) [%] | Primary screening, parasite growth relative to the negative control ([1]; compound at 100 µM) [%] | IC50 [2] [µM] | IC50 [4] [µM] |
| --- | --- | --- | --- | --- | --- | --- | --- | --- | --- | --- | --- |
| CC(C)(C)n1c(-c2ccccc2)nc2c(OCc3ccccc3)ncnc21 [Compound 6D] | 117 | 114 | 13.2 | 5.56 | >150 | 3.78 | – | – | – | – | – |
| c1ccc(CCn2c(-c3ccccc3)nc3c(OCc4ccccc4)ncnc32)cc1 [Compound 6g] | – | – | – | – | >150 | – | 100.79 | 94.94 | 24.45 | 3.97 | 19.6 |
| COC(=O)c1ccccc1-n1cc(COc2ncnc3c2nc(-c2ccccc2)n3N(C)C)nn1 [Compound 34] | 95.6 | 85 | 43.2 | 4.12 | >6000 | 4.24 | – | – | – | – | – |
